Experimental data taken from US20060083790A1, “Combination of an ibat inhibitor and a metal salt for the treatment of diarrhoea” (priority 2002, published 2006).
Like-named read-outs stand apart in the source and are kept apart here.

How the values were obtained:
[1] = for Absorbance (taurocholate concentration after the enzymatic colour reaction): pH 6.5, supernatant
Method: A solution simulating the human intestinal fluid in the fasted state, FaSSIF, was prepared by dissolving the following components in deionised water.
The pH was adjusted to 6.5.
A separate solution of calcium chloride was prepared by dissolving 149.2 mM of the salt in deionised water.
5.0 ml of FaSSIF was added to each of 7 glass vials. A known volume, varying from 0 to 0.5 ml, of the calcium chloride solution was added to each vial. Each sample was inspected visually immediately after the calcium chloride addition.
A volume of 1.0 ml was withdrawn from each sample and centrifuged for 20 mins at 14 000 rpm. The clear supernatant of each sample was collected and analysed with respect to bile acid content. The analyses were carried out using a bile acid analysis kit which employs an enzymatic colour reaction. The concentration of bile acid is proportional to the colour intensity which is determined by spectrophotometry.

[2] = for Concentration of bile acids: pH 7.4, supernatant
Method: A solution containing a mixture of bile acids was prepared by dissolving the following components in deionised water:
The pH was adjusted to 7.4.
A calcium chloride solution was prepared by dissolving the following components in deionised water:
2.0 ml of the bile acid solution was added to each of 6 glass vials. A known volume, varying from 0 to 300 μl, of the calcium chloride solution was added to each vial. Each sample was inspected visually immediately after the calcium chloride addition. 1.5 ml of each sample was transferred into a centrifugation tube and centrifuged for 20 mins at 14 000 rpm. The clear supernatant was collected and analysed with respect to bile acid content. The analyses were carried out using a bile acid analysis kit which employs an enzymatic colour reaction. The concentration of bile acid is proportional to the colour intensity which is determined by spectrophotometry.

[3] = dog
Method: The IBAT inhibitor is dosed orally at a dose that will cause diarrhoea, for example 25-50 μmol/kg. The metal salt is then introduced into the colon, through the fistulae, to see if the diarrhoea can be prevented. The dose of the metal salt varies and can be determined after analysing the bile acid concentration in faeces from dogs having been exposed to the same dose of the IBAT inhibitor.
A solution of an BAT inhibitor was administered directly into the stomach of the dog via an orogastric tube (t=0 hours). The dog was fed 30 minutes after the administration of the IBAT inhibitor (t=0.5 hours).
Faeces was collected during the first 8 hours after administration, and the time for each bowel movement was recorded. Each faeces sample was homogenized with a high-shear mixer and, subsequently, centrifuged in order to separate the solid material from the faecal water phase. The faecal water was collected and analysed with respect to bile acid content. The amount of bile acid in the faecal water was related to the amount of solid material in each faeces sample.

[4] = 200 mg crystalline calcium phosphate in 10 ml, initial GDC 1-15 mM, pH 7.4, all samples
Method: A stock solution of sodium glycodeoxycholate (GDC) was prepared by dissolving the following substances in deionised water:
(§1) The pH was adjusted to 7.4 with sodium hydroxide.
(§2) A similar buffer solution with the same content, except for the bile acid was also prepared.
The resulting initial GDC concentrations in the samples were 1-15 mM. The samples were equilibrated for several hours. The solid material in the samples were removed by centrifugation and/or filtration, and the obtained clear supernatants were analysed with respect to GDC content. The analyses were carried out by HPLC.

[5] = 200 mg crystalline calcium phosphate in 10 ml, initial DC 1-20 mM, pH 7.4, all samples
Method: A stock solution of sodium deoxycholate (DC) was prepared by dissolving the following substances in deionised water:
as §1, §2
The resulting initial DC concentrations in the samples were 1-20 mM. The samples were equilibrated for several hours. The solid material in the samples were removed by centrifugation and/or filtration, and the obtained clear supernatants were analysed with respect to DC content. The analyses were carried out by HPLC.

[6] = with increasing added amount of calcium chloride

| Compound | Absorbance (taurocholate concentration after the enzymatic colour reaction) ([1]; 7.5 μmol calcium chloride added to 5.0 ml FaSSIF) | Absorbance (taurocholate concentration after the enzymatic colour reaction) ([1]; 14.9 μmol calcium chloride added to 5.0 ml FaSSIF) | Absorbance (taurocholate concentration after the enzymatic colour reaction) ([1]; 22.4 μmol calcium chloride added to 5.0 ml FaSSIF) | Absorbance (taurocholate concentration after the enzymatic colour reaction) ([1]; 29.8 μmol calcium chloride added to 5.0 ml FaSSIF) | Absorbance (taurocholate concentration after the enzymatic colour reaction) ([1]; 44.8 μmol calcium chloride added to 5.0 ml FaSSIF) | Absorbance (taurocholate concentration after the enzymatic colour reaction) ([1]; 74.6 μmol calcium chloride added to 5.0 ml FaSSIF) | Visual inspection immediately after calcium chloride addition ([1]; FaSSIF, all samples with calcium chloride) | Concentration of taurocholate in the aqueous solution, trend [1, 6] | Concentration of bile acids ([2]; 3.0 μmol calcium chloride added to 2.0 ml bile acid solution) [mM] | Concentration of bile acids ([2]; 6.0 μmol calcium chloride added to 2.0 ml bile acid solution) [mM] | Concentration of bile acids ([2]; 12.0 μmol calcium chloride added to 2.0 ml bile acid solution) [mM] | Concentration of bile acids ([2]; 30.0 μmol calcium chloride added to 2.0 ml bile acid solution) [mM] | Concentration of bile acids ([2]; 60.1 μmol calcium chloride added to 2.0 ml bile acid solution) [mM] | Visual inspection immediately after calcium chloride addition ([2]; bile acid mixture, all samples with calcium chloride) | Concentration of bile acids in the aqueous solution, trend [2, 6] | Bile acid concentration in faecal water ([3]; IBAT inhibitor into the stomach at t=0, intracolonic calcium chloride at t=1 hour, as long as calcium chloride is present in the colon) | Time after which most of the calcium chloride has been removed from the colon ([3]; intracolonic administration, removed by absorption or by bowel movements) | GDC concentration in supernatant (HPLC) [4] | DC concentration in supernatant (HPLC) [5] |
| --- | --- | --- | --- | --- | --- | --- | --- | --- | --- | --- | --- | --- | --- | --- | --- | --- | --- | --- | --- |
| [Ca+2].[Cl-].[Cl-] [calcium chloride] | 0.0933 | 0.0890 | 0.0843 | 0.0783 | 0.0735 | 0.0718 | A precipitate was formed in all samples | decreased with increasing added amount of calcium chloride | 2.2 | 2.1 | 1.9 | 0.8 | 0.7 | a precipitate was formed in all samples | decreased with increasing added amount of calcium chloride | relatively constant | approximately 3.5 hours |  |  |
| calcium phosphate |  |  |  |  |  |  |  |  |  |  |  |  |  |  |  |  |  | reduced by the presence of calcium phosphate in all samples | reduced by the presence of calcium phosphate in all samples |
